Data from patent publication US20220087962A1, “COMPOSITIONS AND METHODS FOR TREATING AGE-RELATED DISEASES OR CONDITIONS” (Arizona Board of Regents on Behalf of the University of …, priority 2019, published 2022).
“Also recorded” adds a separate entry of the source.

Columns and labels:
[1] = Direct interaction of 3HAA with H2O2 in vitro; conditions: addition of 3HAA in the absence of other media components
Source text: (§1) Superoxide dismutases degrade cellular superoxide to oxygen and H2O2.

[2] = test system: cultured human blood cells; conditions: cited from earlier work
brains of rats = conditions: cited from earlier work
C. elegans [3] = assay: Endogenous H2O2 produced by C. elegans in vivo; parameters: species or system Caenorhabditis elegans; conditions: 3HAA supplementation
Source text: as §1

C. elegans [4] = assay: C. elegans lifespan with 3HAA supplementation; assay type: in vivo, Caenorhabditis elegans; conditions: 3HAA supplementation of worms
Method: 3HAA mediates lifespan extension by haao-1 knockdown. 3HAA is red in color. Worms with reduced HAAO turned visibly red with age. Using liquid chromatography-tandem mass spectrometry (LC-MS/MS), it was confirmed that these worms had elevated 3HAA (FIG. 3B). Next, it was assessed whether 3HAA may mediate the benefits of reducing haao-1. Indeed, worms supplemented with 3HAA were long-lived (FIG. 3C), mimicking haao-1 knockdown (FIG. 3D).

Aβ = Aβ (Homo sapiens, UniProt P05067); conditions: buffered media; direct binding to Aβ; cited from earlier work
hemeoxygenase-1 (HO-1) = conditions: human cell culture; cited from earlier work
[5] = test system: C. elegans expressing a 35-unit polyglutamine repeat peptide in body wall muscle; assay: Paralysis in C. elegans expressing a 35-unit polyglutamine repeat peptide in body wall muscle (Huntington's disease model); assay type: in vivo, Caenorhabditis elegans; conditions: 3HAA supplementation; aggregate-prone polyglutamine repeat in body wall muscle
[6] = test system: C. elegans expressing human Aβ1-42 in body wall muscle; assay: Paralysis in C. elegans expressing human Aβ1-42 in body wall muscle (Alzheimer's disease model); assay type: in vivo, Caenorhabditis elegans; conditions: 3HAA supplementation; transgenic Aβ1-42 in body wall muscle
Method: It was then tested whether 3HAA would prevent Aβ toxicity in vivo. In C. elegans, transgenic expression of the aggregate-prone 42 amino acid form of Aβ (Aβ1-42) in body wall muscle induces paralysis (Link C D. Proc Natl Acad Sci USA 1995, 92:9368-72). […] Next and as described below, 3HAA will be tested as a treatment for amyloid pathology in a cellular context more relevant to AD.

brain tissue = conditions: cited from earlier work
α-synuclein = α-synuclein (Homo sapiens, UniProt P37840); conditions: QA self-assembled fibrils; cited from earlier work
tau = conditions: cultured human neurons; cited from earlier work

Chain of Aβ (P05067 672-713 limits assumed): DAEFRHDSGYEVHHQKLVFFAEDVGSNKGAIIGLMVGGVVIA

| Structure (SMILES) | measureable H2O2 in vitro (direct degradation of H2O2) [1] | LDL oxidation [2] | lipid peroxidation (brains of rats) | endogenous H2O2 produced by C. elegans in vivo (C. elegans [3]) | lifespan (C. elegans [4]) | Aβ misfolding/aggregation in vitro (Aβ) | expression of hemeoxygenase-1 (HO-1) (hemeoxygenase-1 (HO-1)) | paralysis (polyglutamine repeat model) [5] | onset of paralysis (Aβ toxicity) [6] | in vivo lipid peroxidation in brain tissue (brain tissue) | seeding of α-synuclein aggregation (α-synuclein) | tau phosphorylation (tau) |
| --- | --- | --- | --- | --- | --- | --- | --- | --- | --- | --- | --- | --- |
| Nc1c(O)cccc1C(=O)O [3HAA, 3-hydroxyanthranilic acid] | reduced measureable H2O2; also recorded: directly breaks down H2O2; also recorded: directly degrades H2O2; also recorded: direct degradation of hydrogen peroxide | prevents LDL oxidation | prevents | limited endogenous H2O2; also recorded: reduces H2O2 produced by C. elegans in vivo | long-lived; also recorded: extends lifespan; also recorded: robustly extended lifespan | prevents Aβ aggregation; also recorded: prevents Aβ misfolding through direct binding; also recorded: preventing misfolding and aggregation | induces expression of the antioxidant hemeoxygenase-1 (HO-1) | delays paralysis | delayed onset of paralysis; also recorded: delays paralysis; also recorded: delayed Aβ pathology |  |  |  |
| O=C(O)c1cccnc1C(=O)O [QA, quinolinic acid] |  |  |  |  |  |  |  |  |  | induces in vivo lipid peroxidation in brain tissue | seed and accelerate aggregation of α-synuclein; also recorded: seeding aggregation of α-synuclein | drives tau phosphorylation |
